# Results: patent publication EP0205308B1, “Scytophycins” (Moore, Richard Elliott, priority 1985, dated 1986)
# Marks after values point to notes of the source that are not given here. Starred links: 1 amine or outer side, 2 acyl side, 3 side chain; linkers in the order of their positions; H or OH if unused. Non-standard residues stand in square brackets, D forms with d. Residues, ends and D or L forms follow the SMILES beside them. X1 = CCC(N[*:1])C(C)C(=O)O[C@H](C(=O)[*:2])[C@@H](C)CC; X2 = C[C@H](N[*:1])C(=O)C(C)(C)C(=O)[*:2]; NMeY = CN[C@@H](Cc1ccc(O)cc1)C(=O)O; NMeI = CC[C@H](C)[C@H](NC)C(=O)O; NMeV = CN[C@H](C(=O)O)C(C)C
# How the values were obtained:
# Pythium ultimum X751 = test: In vitro agar-diffusion test; assay type: cell-based; settings: for Zone of Inhibition Size: Table 6, level 1 mg/mL
# Protocol: (§1) The activity of scytophycin compounds against pathogenic fungi in standard in vitro agar-diffusion tests, using ¼"(6mm) discs holding ~30 µL of test solution, is illustrated in Tables 6-12.
# Rhizoctonia solani X767 = test: In vitro agar-diffusion test; assay type: cell-based; set-up: key: - = not active
# Protocol: as §1
# [1] = system: Sclerotina homoeocarpa X768; test: In vitro agar-diffusion test; assay type: cell-based; set-up: key: - = not active
# Protocol: as §1
# [2] = system: KB human epidermoid carcinoma; test: Cytotoxicity, minimum toxic dose (method of Furusawa and Cutting); assay type: cell-based; settings: KB human epidermoid carcinoma cell line
# Protocol: (§2) The scytophycin compounds are potent cytotoxins. For example, the minimum toxic doses of scytophycins A and B against KB human epidermoid carcinoma and NIH/3T3 mouse fibroblast cell lines were determined to be 1 ng/mL and 0.65 ng/mL, respectively, using methods described by E. Furusawa and W. Cutting in Ann. New York Acad. Sci. 173, 669-679 (1970).
# NIH/3T3 mouse fibroblast = test: as above; assay type: cell-based; settings: NIH/3T3 mouse fibroblast cell line
# Protocol: as §2
# B16 Melanoma = test: Survival of mice with intraperitoneally implanted tumor; assay type: in vivo, BDF1 Mice; settings: for activity against intraperitoneally implanted tumor: B16 melanoma, result in words
# Protocol: (§3) Female hybrid BDF1 (DBA/2 x C57BL/6) mice were used for the evaluation of the scytophycins against the three tumors. The mice were first inoculated intraperitoneally with 10⁶ cells of P388 ascites leukemia (P388), 2 to 6 x 10⁵ cells of Lewis lung carcinoma (LLC) homogenate, or 0.3 mL of 20% homogenate of B16 tumor (B16) masses. Drug treatment was started the next day (day 1) and continued daily for 6-9 days.
# Lewis Lung Carcinoma = test: as above; assay type: in vivo, BDF1 Mice; settings: for activity against intraperitoneally implanted tumor: Lewis lung carcinoma, result in words; for % T/C / Mean Survival Time, Days Treated: LLC, 9 days of treatment
# Protocol: as §3
# [3] = system: P388 Lymphocytic Leukemia; test: as above; assay type: in vivo, BDF1 Mice; settings: for activity against intraperitoneally implanted tumor: P388 lymphocytic leukemia, result in words
# Protocol: as §3
# [4] = system: Saccharomyces pastorianus X52; test: In vitro agar-diffusion test; assay type: cell-based; set-up: key: T = trace
# Protocol: as §1
# Candida albicans X657 = test: In vitro agar-diffusion test; assay type: cell-based; settings: for inhibition of fungal pathogen: Candida albicans, general statement in words
# Protocol: as §1
# Neurospora crassa X846 = test: In vitro agar-diffusion test; assay type: cell-based
# Protocol: as §1
# [5] = assay type: in vivo; settings: mice, administered IP
# Protocol: At sublethal doses, the scytophycin compounds are antineoplastic agents. The minimum lethal dose of scytophycin B in mice, when administered IP, is about 650 µg/kg.
# [6] = P388, 1 µg/Mouse, 8 days of treatment
# [7] = B16, 2 µg/Mouse, 8 days of treatment
# [8] = B16, 4 µg/Mouse, 8 days of treatment
# [9] = B16, 8 µg/Mouse, 8 days of treatment
# [10] = P388, 0.5 µg/Mouse, 8 days of treatment
# [11] = P388, 0.65 µg/Mouse, 8 days of treatment
# [12] = P388, 2 µg/Mouse, 8 days of treatment
# [13] = P388, 3.25 µg/Mouse, 6 days of treatment
# [14] = P388, 4 µg/Mouse, 8 days of treatment
compound,measurement,setting,value
"CCC1NC(=O)[C@H](C)NC(=O)C(C)(C)C(=O)[C@H](C)NC(=O)[C@H](Cc2ccc(OC)cc2)N(C)C(=O)[C@H](C(C)C)N(C)C(=O)CNC(=O)[C@H]([C@@H](C)CC)N(C)C(=O)CNC(=O)[C@H]([C@@H](C)CC)OC(=O)C1C (some centres unmarked) [Majusculamide C, reference compound] (cyclo(A[X1]G[NMeI]G[NMeV][NMeY](Me)[X2]))",Size of Zone of Inhibition (mm),"Pythium ultimum X751; Table 10, 0.01 mg/mL",10^a mm
same,Size of Zone of Inhibition (mm),"Pythium ultimum X751; Table 10, 0.1 mg/mL",18 mm
same,Size of Zone of Inhibition (mm),"Pythium ultimum X751; Table 10, 1.0 mg/mL",>30 mm
same,Size of Zone of Inhibition (mm),"Rhizoctonia solani X767; Table 10, 0.01 mg/mL",-
same,Size of Zone of Inhibition (mm),"Rhizoctonia solani X767; Table 10, 0.1 mg/mL",-
same,Size of Zone of Inhibition (mm),"Rhizoctonia solani X767; Table 10, 1.0 mg/mL",20^a mm
same,Size of Zone of Inhibition (mm),"[1]; Table 10, 0.01 mg/mL",-
same,Size of Zone of Inhibition (mm),"[1]; Table 10, 0.1 mg/mL",-
same,Size of Zone of Inhibition (mm),"[1]; Table 10, 1.0 mg/mL",17 mm
Scytophycin A,minimum toxic dose,[2],1 ng/mL
same,minimum toxic dose,NIH/3T3 mouse fibroblast,1 ng/mL
same,activity against intraperitoneally implanted tumor,B16 Melanoma,did not exhibit activity
same,activity against intraperitoneally implanted tumor,Lewis Lung Carcinoma,moderate activity
same,% T/C,[3]; [6],125%
same,"Mean Survival Time, Days Treated",[3]; [6],10.0 days
same,activity against intraperitoneally implanted tumor,[3],moderate activity
same,Size of Zone of Inhibition (mm),"[4]; Table 7, 0.01 mg/mL",T^a
same,Size of Zone of Inhibition (mm),"[4]; Table 7, 0.1 mg/mL",17 mm
same,Size of Zone of Inhibition (mm),"[4]; Table 7, 1 mg/mL",24 mm
same,inhibition of fungal pathogen,Candida albicans X657,inhibit
same,Size of Zone of Inhibition (mm),"Candida albicans X657; Table 7, 0.01 mg/mL",12 mm
same,Size of Zone of Inhibition (mm),"Candida albicans X657; Table 7, 0.1 mg/mL",19 mm
same,Size of Zone of Inhibition (mm),"Candida albicans X657; Table 7, 1 mg/mL",23 mm
same,Size of Zone of Inhibition (mm),"Neurospora crassa X846; Table 7, 0.01 mg/mL",18 mm
same,Size of Zone of Inhibition (mm),"Neurospora crassa X846; Table 7, 0.1 mg/mL",25 mm
same,Size of Zone of Inhibition (mm),"Neurospora crassa X846; Table 7, 1 mg/mL",30 mm
same,Zone of Inhibition Size,Pythium ultimum X751,37 mm
same,Size of Zone of Inhibition (mm),"Pythium ultimum X751; Table 10, 0.01 mg/mL",20 mm
same,Size of Zone of Inhibition (mm),"Pythium ultimum X751; Table 10, 0.1 mg/mL",>30 mm
same,Size of Zone of Inhibition (mm),"Pythium ultimum X751; Table 10, 1.0 mg/mL",>30 mm
same,Size of Zone of Inhibition (mm),"Rhizoctonia solani X767; Table 10, 0.01 mg/mL",13 mm
same,Size of Zone of Inhibition (mm),"Rhizoctonia solani X767; Table 10, 0.1 mg/mL",23 mm
same,Size of Zone of Inhibition (mm),"Rhizoctonia solani X767; Table 10, 1.0 mg/mL",30 mm
same,Size of Zone of Inhibition (mm),"[1]; Table 10, 0.01 mg/mL",20 mm
same,Size of Zone of Inhibition (mm),"[1]; Table 10, 0.1 mg/mL",30 mm
same,Size of Zone of Inhibition (mm),"[1]; Table 10, 1.0 mg/mL",>30 mm
Scytophycin B,minimum lethal dose,[5],about 650 µg/kg
same,minimum toxic dose,[2],0.65 ng/mL
same,minimum toxic dose,NIH/3T3 mouse fibroblast,0.65 ng/mL
same,% T/C,B16 Melanoma; [7],102%
same,"Mean Survival Time, Days Treated",B16 Melanoma; [7],19.4 days
same,% T/C,B16 Melanoma; [8],104%
same,"Mean Survival Time, Days Treated",B16 Melanoma; [8],19.8 days
same,% T/C,B16 Melanoma; [9],63%
same,"Mean Survival Time, Days Treated",B16 Melanoma; [9],12.0 days
same,toxicity remark in % T/C column,B16 Melanoma; [9],toxic
same,activity against intraperitoneally implanted tumor,B16 Melanoma,did not exhibit activity
same,% T/C,Lewis Lung Carcinoma; 0.5 µg/Mouse,106%
same,"Mean Survival Time, Days Treated",Lewis Lung Carcinoma; 0.5 µg/Mouse,10.4 days
same,% T/C,Lewis Lung Carcinoma; 1 µg/Mouse,114%
same,"Mean Survival Time, Days Treated",Lewis Lung Carcinoma; 1 µg/Mouse,11.2 days
same,% T/C,Lewis Lung Carcinoma; 2 µg/Mouse,124%
same,"Mean Survival Time, Days Treated",Lewis Lung Carcinoma; 2 µg/Mouse,12.2 days
same,% T/C,Lewis Lung Carcinoma; 4 µg/Mouse,129%
same,"Mean Survival Time, Days Treated",Lewis Lung Carcinoma; 4 µg/Mouse,12.6 days
same,activity against intraperitoneally implanted tumor,Lewis Lung Carcinoma,moderate activity
same,% T/C,[3]; [10],100%
same,"Mean Survival Time, Days Treated",[3]; [10],9.4 days
same,% T/C,[3]; [11],125%
same,"Mean Survival Time, Days Treated",[3]; [11],10.0 days
same,% T/C,[3]; [6],113%
same,"Mean Survival Time, Days Treated",[3]; [6],10.6 days
same,% T/C,[3]; [12],130%
same,"Mean Survival Time, Days Treated",[3]; [12],12.2 days
same,% T/C,[3]; [13],136%
same,"Mean Survival Time, Days Treated",[3]; [13],11.4 days
same,% T/C,[3]; [14],128%
same,"Mean Survival Time, Days Treated",[3]; [14],12.0 days
same,activity against intraperitoneally implanted tumor,[3],moderate activity
same,Size of Zone of Inhibition (mm),"[4]; Table 7, 0.01 mg/mL",20 mm
same,Size of Zone of Inhibition (mm),"[4]; Table 7, 0.1 mg/mL",20 mm
same,Size of Zone of Inhibition (mm),"[4]; Table 7, 1 mg/mL",27 mm
same,Size of Zone of Inhibition (mm),"[4]; Table 8, 0.33 mg/mL",24 mm
same,Size of Zone of Inhibition (mm),"[4]; Table 8, 1 mg/mL",24 mm
same,inhibition of fungal pathogen,Candida albicans X657,inhibit
same,Size of Zone of Inhibition (mm),"Candida albicans X657; Table 7, 0.01 mg/mL",21 mm
same,Size of Zone of Inhibition (mm),"Candida albicans X657; Table 7, 0.1 mg/mL",22 mm
same,Size of Zone of Inhibition (mm),"Candida albicans X657; Table 7, 1 mg/mL",26 mm
same,Size of Zone of Inhibition (mm),"Candida albicans X657; Table 8, 0.33 mg/mL",25 mm
same,Size of Zone of Inhibition (mm),"Candida albicans X657; Table 8, 1 mg/mL",31 mm
same,Size of Zone of Inhibition (mm),"Neurospora crassa X846; Table 7, 0.01 mg/mL",30 mm
same,Size of Zone of Inhibition (mm),"Neurospora crassa X846; Table 7, 0.1 mg/mL",27 mm
same,Size of Zone of Inhibition (mm),"Neurospora crassa X846; Table 7, 1 mg/mL",32 mm
same,Size of Zone of Inhibition (mm),"Neurospora crassa X846; Table 8, 0.33 mg/mL",36 mm
same,Size of Zone of Inhibition (mm),"Neurospora crassa X846; Table 8, 1 mg/mL",36 mm
same,Zone of Inhibition Size,Pythium ultimum X751,37 mm
same,Size of Zone of Inhibition (mm),"Pythium ultimum X751; Table 10, 0.01 mg/mL",30 mm
same,Size of Zone of Inhibition (mm),"Pythium ultimum X751; Table 10, 0.1 mg/mL",30^a mm
same,Size of Zone of Inhibition (mm),"Pythium ultimum X751; Table 10, 1.0 mg/mL",30^a mm
same,Size of Zone of Inhibition (mm),"Pythium ultimum X751; Table 11, 0.33 mg/mL",30 mm
same,Size of Zone of Inhibition (mm),"Pythium ultimum X751; Table 11, 1.0 mg/mL",30 mm
same,Size of Zone of Inhibition (mm),"Rhizoctonia solani X767; Table 10, 0.01 mg/mL",30 mm
same,Size of Zone of Inhibition (mm),"Rhizoctonia solani X767; Table 10, 0.1 mg/mL",>30 mm
same,Size of Zone of Inhibition (mm),"Rhizoctonia solani X767; Table 10, 1.0 mg/mL",>30 mm
same,Size of Zone of Inhibition (mm),"Rhizoctonia solani X767; Table 11, 0.33 mg/mL",40 mm
same,Size of Zone of Inhibition (mm),"Rhizoctonia solani X767; Table 11, 1.0 mg/mL",46^a mm
same,Size of Zone of Inhibition (mm),"[1]; Table 10, 0.01 mg/mL",>30 mm
same,Size of Zone of Inhibition (mm),"[1]; Table 10, 0.1 mg/mL",>30 mm
same,Size of Zone of Inhibition (mm),"[1]; Table 10, 1.0 mg/mL",>30 mm
same,Size of Zone of Inhibition (mm),"[1]; Table 11, 0.33 mg/mL",40 mm
same,Size of Zone of Inhibition (mm),"[1]; Table 11, 1.0 mg/mL",44 mm
